# Test results reported in patent US9132108B2, “Pharmaceutical composition for ameliorating and/or preventing leptin resistance, and use thereof” (HIROSHIMA UNIVERSITY, priority 2009, dated 2015).
# Test system: blood glucose level
# Assay: Glucose tolerance test in leptin-resistant mice (Example 11)
# Type: in vivo, mouse
# Details: 3 hours after glucose 2 g/kg i.p.; 3 mg/kg per day orally, 3 weeks; vs control group; P<0.07 in t-test
# Procedure: Similarly with Example 8, 4 weeks-old male mice (C57BL/6 Cr Slc) had been given high-fat diet for 6 months so that leptin resistance would be induced in the mice. Thereafter, the mice were divided into two groups (each consisting of 8 mice), and the mice of individual groups were given the following diets for 3 weeks. • Control group: normal diet (10 kcal % fat) only • Flurbiprofen-administered group: normal diet+flurbiprofen Flurbiprofen (F8514, produced by SIGMA) was diluted with drinking water so that the administration amount of flurbiprofen would be 3 mg/kg per day, and was orally administered to the mice in the form of drinking water. The mice to which flurbiprofen had been administered for 3 weeks were subjected to a glucose tolerance test. In Example 11, mice were fasted overnight for 17 hours from between 17:00 and 18:00 of the previous day, and fasted blood glucose level (pre) was measured by Freestyle freedom (NIPRO CORPORATION, blood glucose self-monitoring system) at 10:00 to 11:00. Thereafter, glucose was intraperitoneally (i.p.) administered so that the administration amount of glucose would be 2 g/kg. Blood glucose level was measured using Freestyle freedom (NIPRO CORPORATION, blood glucose self-monitoring system) 30 minutes, 1 hour, 2 hours, 3 hours, and 4 hours after glucose administration. FIG. 17 is a graph showing the result of the glucose tolerance test. […]
structure (smiles),measurement,value
C[C@@H](C(=O)O)c1ccc(-c2ccccc2)c(F)c1 [flurbiprofen],blood glucose level in glucose tolerance test,reduced blood glucose level
